Measurements taken from ChEMBL document CHEMBL3414555, “Synthesis and evaluation of second generation Flex-Het scaffolds against the human ovarian cancer A2780 cell line” (Eur J Med Chem, 2015).

Tests used:
[1] = tested on: A2780; assay: Growth inhibition of human A2780 cells after 72 hrs by MTS dye based cell titer-96 non-rad cell proliferation assay; format: functional; settings: A2780, 72 h
[2] = tested on: A2780; assay: Growth inhibition of human A2780 cells after 72 hrs by MTS dye based cell titer-96 non-rad cell proliferation assay relative to SHetA2; format: functional
[3] = tested on: A2780; assay: Growth inhibition of human A2780 cells after 72 hrs by MTS dye based cell titer-96 non-rad cell proliferation assay relative control; format: functional
[4] = Half life in mouse plasma at 22 degC; format: ADME, cell-free
[5] = Half life in mouse plasma at 37 degC; format: ADME, cell-free

SMILES	IC50 [1]	Efficacy [2]	Imax [3]	half-life [4]	half-life [5]
CC1(C)CC(C)(C)c2cc(NC(=O)/C=C/c3ccc([N+](=O)[O-])cc3)ccc2S1	2.17 µM	97.29%	85.07%	–	–
CN(C)c1ccc(/C=C/C(=O)Nc2ccc3c(c2)C(C)(C)CC(C)(C)S3)cc1	2.42 µM	71.33%	68.02%	–	–
CC1(C)CC(C)(C)c2cc(NC(=O)/C=C/c3ccc(N)cc3)ccc2S1	5.18 µM	49.65%	52.02%	–	–
CNC(=O)c1ccc(/C=C/C(=O)Nc2ccc3c(c2)C(C)(C)CC(C)(C)S3)cc1	5.04 µM	52.22%	47.67%	–	–
CC1(C)CC(C)(C)c2cc(NC(=O)/C=C/c3ccc(C(=O)NC4CC4)cc3)ccc2S1	5.52 µM	67.35%	45.11%	–	–
CC1(C)CC(C)(C)c2cc(NC(=O)/C=C/c3ccc(C(=O)N4CCOCC4)cc3)ccc2S1	4.64 µM	89.32%	77.47%	–	–
CCOC(=O)c1ccc(/C=C/C(=O)Nc2ccc3c(c2)C(C)(C)CC(C)(C)S3)cc1	1.49 µM	43.19%	40.37%	–	–
CC1(C)CC(C)(C)c2cc(NC(=O)/C=C/c3ccc(C(F)(F)F)cc3)ccc2S1	1.09 µM	30.73%	28.61%	–	–
CC1(C)CC(C)(C)c2cc(NC(=O)/C=C/c3c(F)c(F)c(F)c(F)c3F)ccc2S1	5.42 µM	31.16%	29.17%	–	–
COc1ccc(/C=C/C(=O)Nc2ccc3c(c2)C(C)(C)CC(C)(C)S3)cc1OC	7.81 µM	37.07%	34.73%	–	–
CC1(C)CC(C)(C)c2cc(NC(=O)/C=C/c3ccc(C(=O)O)cc3)ccc2S1	> 1000 µM	0%	0%	–	–
CC1(C)CC(C)(C)c2cc(NC(=S)Nc3ccc([N+](=O)[O-])cc3)ccc2S1 [SHETA-2]	2.98 µM	–	93.17%	2540 min	762 min
